The text below walks through data of US20160199491A1, “Compounds compositions and methods including thermally labile moieties” (Biosearch Technologies, Inc., priority 2014, published 2016).

This series is described as follows: Deprotection of a Boc-protected PCR primer at 94° C. in water, PCR buffer or TEAA, tracked by reverse-phase HPLC and mass spec. The format is physicochemical. The procedure: The RNaseP forward primer 19-mer [AGATTTGGACCTGCGAGCG](SEQ ID NO: 1) was synthesized on Boc-dG CPG (1 μmol) with Boc dA, dC, and dG amidites. The fully deprotected mass for this primer is 5868 g/mol and the expected mass for Boc protection is […] [15 Boc residues.100 amu/Boc=1500 added]. Deprotection of side chain protecting groups was performed with 25% 2-methoxyethylamine in methanol (1 mL) for 3 hrs at room temp, remove CPG and evaporate to dryness, re-dissolve in DI water (1 mL). The DMT was […] because the Boc group can be used as a hydrophobic handle. The product was desalted with 20-50 micron polystyrene beads packed in a 1 mL cartridge and eluted in 20% ACN/H2O.
The desalted Boc-primer was aliquoted into three microfuge tubes of 100 uL each. The samples were dried down and brought up in 1 mL of house DI water. Only water was added to the first tube. To the second tube 1 mL of PCR buffer pH 8.5, 1× with MgCl2, was added to a final concentration of 6 mM (standard PCR concentrations). To the third tube TEAA was added to give a final concentration of 0.025 N. Each of the three samples was aliquoted into ten 200 uL thin-walled PCR tubes for a total of 30 tubes. All primer preparation was done at room temperature.
An ABI 9700 Thermocycler was preheated to 94° C. Each sample was placed into the heat block and removed at the time point and placed on dry ice to stop the reaction. As a negative control, the T=0 sample was not heated and placed directly in ice at the beginning of the experiment. The samples were allowed to thaw at room temperature and transferred to a 96-well plate for HPLC and mass spectroscopy analysis.
For each time point, reverse-phase and mass spec data were acquired to track the removal of the Boc protecting group. The Boc protected primer is not a single species but rather a collection at various stages of protection.

As for “Boc-primer: RNaseP forward primer 19-mer [AGATTTGGACCTGCGAGCG] (SEQ ID NO: 1) synthesized with Boc dA, dC, and dG amidites (listed as DNA, chemistry not fully specified)”, under “10 minutes, PCR buffer pH 8.5, 1× with MgCl2 6 mM”, the “deprotection after 10 minutes under normal PCR buffering” value is “deprotected”. Also, where the note is “10 minutes, TEAA 0.025 N”, the “Boc groups after 10 minutes in TEAA” value is given as “some remained”. Also, the “Boc groups after 10 minutes” value (10 minutes, samples in water, PCR buffer pH 8.5 with MgCl2 6 mM, TEAA 0.025 N) was “almost all of the Boc groups were gone”. Further, the “Boc groups after 15 minutes in TEAA” value (15 minutes, TEAA 0.025 N) is reported as “all were removed”.
